This note sets out measurements from article doi:10.1101/2021.04.08.439011v1 (biorxiv, 2021).

Read-outs that look alike come from different tables or passages of the source.

One assay concerns the target STK4 (Homo sapiens, UniProt Q13043). The following applies: 0.1 µM; binder.
In another assay the target is PLK3 (Homo sapiens, UniProt Q9H4B4). To be noted: 0.1 µM; binder.
A further assay addresses DMPK (Homo sapiens, UniProt Q09013). The following applies: 0.1 µM; binder.
In a further assay the target is MRCKB (Homo sapiens, UniProt Q9Y5S2). The following applies: 0.1 µM; binder.
MRCKB, sequence (Q9Y5S2 whole entry): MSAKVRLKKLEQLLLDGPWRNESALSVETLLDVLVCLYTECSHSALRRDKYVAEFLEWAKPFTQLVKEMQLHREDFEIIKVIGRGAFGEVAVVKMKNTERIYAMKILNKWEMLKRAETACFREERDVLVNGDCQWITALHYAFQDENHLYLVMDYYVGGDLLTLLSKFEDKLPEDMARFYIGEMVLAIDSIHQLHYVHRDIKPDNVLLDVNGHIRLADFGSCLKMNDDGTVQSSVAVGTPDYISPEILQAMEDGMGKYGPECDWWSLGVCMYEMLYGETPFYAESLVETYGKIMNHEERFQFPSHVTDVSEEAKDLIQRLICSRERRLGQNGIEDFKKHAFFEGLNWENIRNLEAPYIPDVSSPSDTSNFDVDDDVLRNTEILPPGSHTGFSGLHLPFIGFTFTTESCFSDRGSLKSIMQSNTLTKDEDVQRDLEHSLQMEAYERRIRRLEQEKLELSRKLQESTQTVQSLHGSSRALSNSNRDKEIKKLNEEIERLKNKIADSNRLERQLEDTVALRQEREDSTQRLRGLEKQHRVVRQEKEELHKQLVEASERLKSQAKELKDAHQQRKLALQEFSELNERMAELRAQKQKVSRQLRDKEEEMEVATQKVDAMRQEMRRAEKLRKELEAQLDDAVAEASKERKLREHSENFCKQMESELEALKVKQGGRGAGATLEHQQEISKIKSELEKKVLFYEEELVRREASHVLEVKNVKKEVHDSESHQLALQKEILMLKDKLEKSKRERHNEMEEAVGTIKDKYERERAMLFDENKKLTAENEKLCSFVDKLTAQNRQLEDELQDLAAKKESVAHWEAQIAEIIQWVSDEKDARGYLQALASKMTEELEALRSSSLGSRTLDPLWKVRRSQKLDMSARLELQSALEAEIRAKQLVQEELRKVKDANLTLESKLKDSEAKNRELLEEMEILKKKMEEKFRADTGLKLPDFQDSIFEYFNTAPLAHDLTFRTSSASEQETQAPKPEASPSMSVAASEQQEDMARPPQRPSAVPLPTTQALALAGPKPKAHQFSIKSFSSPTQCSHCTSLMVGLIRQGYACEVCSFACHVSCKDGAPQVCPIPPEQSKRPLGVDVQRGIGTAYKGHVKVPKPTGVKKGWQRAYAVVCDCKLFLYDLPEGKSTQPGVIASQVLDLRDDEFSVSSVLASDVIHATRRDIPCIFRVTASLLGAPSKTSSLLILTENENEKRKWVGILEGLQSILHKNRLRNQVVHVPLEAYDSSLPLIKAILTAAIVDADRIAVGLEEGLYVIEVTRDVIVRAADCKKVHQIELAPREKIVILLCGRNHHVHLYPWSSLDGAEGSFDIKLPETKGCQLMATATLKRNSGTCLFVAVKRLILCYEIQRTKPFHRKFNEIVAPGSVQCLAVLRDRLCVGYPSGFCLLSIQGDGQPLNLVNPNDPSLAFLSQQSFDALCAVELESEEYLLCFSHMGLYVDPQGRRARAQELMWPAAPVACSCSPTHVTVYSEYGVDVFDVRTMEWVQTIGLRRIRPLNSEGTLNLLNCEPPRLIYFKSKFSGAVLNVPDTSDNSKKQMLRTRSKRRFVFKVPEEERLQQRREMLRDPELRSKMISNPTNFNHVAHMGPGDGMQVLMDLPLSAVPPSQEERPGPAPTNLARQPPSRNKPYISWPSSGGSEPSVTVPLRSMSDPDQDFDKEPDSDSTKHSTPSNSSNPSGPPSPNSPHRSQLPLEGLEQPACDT
The target in a further assay is TRKA (Homo sapiens, UniProt P04629). The following applies: 0.1 µM; binder.
The next assay deals with NEK11 (Homo sapiens, UniProt Q8NG66). To be noted: 0.1 µM; binder.
Another assay deals with ERK8 (Homo sapiens, UniProt Q8TD08). The following applies: 0.1 µM; binder.
The target in the next assay is ERK1 (Homo sapiens, UniProt P27361). To be noted: 0.1 µM; binder.
ERK1, sequence (P27361 whole entry): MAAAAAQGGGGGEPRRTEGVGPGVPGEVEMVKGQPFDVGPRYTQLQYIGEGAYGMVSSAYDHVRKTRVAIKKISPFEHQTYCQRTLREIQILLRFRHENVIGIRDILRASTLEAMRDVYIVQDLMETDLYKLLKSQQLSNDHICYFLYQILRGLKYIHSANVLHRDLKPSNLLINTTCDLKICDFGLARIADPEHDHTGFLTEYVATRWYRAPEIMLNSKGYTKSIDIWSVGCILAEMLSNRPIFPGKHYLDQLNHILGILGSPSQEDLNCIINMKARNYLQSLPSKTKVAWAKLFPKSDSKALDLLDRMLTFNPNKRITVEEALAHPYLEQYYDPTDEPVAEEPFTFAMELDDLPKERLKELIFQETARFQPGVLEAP
The target of another assay is ABL1(F317L) (Homo sapiens, UniProt P00519, F317L). The following applies: 0.1 µM, binder.
ABL1(F317L), sequence (P00519 whole entry F317L): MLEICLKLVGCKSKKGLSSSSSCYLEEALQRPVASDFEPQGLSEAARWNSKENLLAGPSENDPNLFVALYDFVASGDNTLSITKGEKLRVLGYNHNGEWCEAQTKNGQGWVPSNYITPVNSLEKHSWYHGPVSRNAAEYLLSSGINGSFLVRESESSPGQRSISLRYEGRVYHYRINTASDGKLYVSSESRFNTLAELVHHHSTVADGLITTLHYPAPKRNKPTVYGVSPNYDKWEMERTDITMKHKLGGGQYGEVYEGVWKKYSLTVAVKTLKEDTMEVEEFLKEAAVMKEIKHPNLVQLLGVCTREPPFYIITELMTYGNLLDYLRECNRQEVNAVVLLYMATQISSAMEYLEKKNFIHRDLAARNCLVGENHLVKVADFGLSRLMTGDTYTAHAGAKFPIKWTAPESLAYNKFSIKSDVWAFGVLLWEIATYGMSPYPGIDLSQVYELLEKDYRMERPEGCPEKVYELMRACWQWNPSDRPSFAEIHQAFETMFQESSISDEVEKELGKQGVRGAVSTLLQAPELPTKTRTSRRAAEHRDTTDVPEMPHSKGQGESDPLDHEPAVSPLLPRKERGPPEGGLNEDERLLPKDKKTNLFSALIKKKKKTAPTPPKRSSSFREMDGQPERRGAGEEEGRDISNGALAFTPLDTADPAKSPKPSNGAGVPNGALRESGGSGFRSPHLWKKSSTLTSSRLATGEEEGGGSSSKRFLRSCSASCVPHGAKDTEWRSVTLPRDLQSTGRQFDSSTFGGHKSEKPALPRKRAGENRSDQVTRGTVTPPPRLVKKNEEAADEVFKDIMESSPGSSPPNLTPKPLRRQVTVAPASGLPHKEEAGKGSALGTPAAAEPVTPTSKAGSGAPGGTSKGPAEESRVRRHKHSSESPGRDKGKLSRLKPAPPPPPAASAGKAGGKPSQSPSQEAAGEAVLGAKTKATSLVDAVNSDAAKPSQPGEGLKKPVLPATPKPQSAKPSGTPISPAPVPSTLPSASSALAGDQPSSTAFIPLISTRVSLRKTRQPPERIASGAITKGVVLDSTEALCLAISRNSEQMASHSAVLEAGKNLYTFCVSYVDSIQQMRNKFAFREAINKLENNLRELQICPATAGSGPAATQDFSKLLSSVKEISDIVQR
A further assay has as its target PIK3CB (Homo sapiens, UniProt P42338). To be noted: 0.1 µM; binder.
For a further assay, the target named is PRKCH (Homo sapiens, UniProt P24723). To be noted: 0.1 µM; binder.
Another assay addresses PIK3CA(Q546K) (Homo sapiens, UniProt P42336, Q546K). To be noted: 0.1 µM; binder.
For a further assay, the target named is PLK4 (Homo sapiens, UniProt O00444). The following applies: 0.1 µM; binder.
Another assay concerns the target EIF2AK1 (Homo sapiens, UniProt Q9BQI3). The following applies: 0.1 µM; binder.
The next assay deals with ADCK4 (Homo sapiens, UniProt Q96D53). The following applies: 0.1 µM; binder.
For the next assay, the target named is PFTK1 (Homo sapiens, UniProt O94921). The following applies: 0.1 µM; binder.
In another assay the target is EPHB2 (Homo sapiens, UniProt P29323). To be noted: 0.1 µM; binder.
The target in a further assay is PRKD1 (Homo sapiens, UniProt Q15139). To be noted: 0.1 µM; binder.
In the next assay the target is LIMK1 (Homo sapiens, UniProt P53667). To be noted: 0.1 µM; binder.
The target of the next assay is NDR1 (Homo sapiens, UniProt Q15208). The following applies: 0.1 µM; binder.
A further assay has as its target MARK2 (Homo sapiens, UniProt Q7KZI7). To be noted: 0.1 µM; binder.

PIK3CA(Q546K), sequence (P42336 whole entry Q546K): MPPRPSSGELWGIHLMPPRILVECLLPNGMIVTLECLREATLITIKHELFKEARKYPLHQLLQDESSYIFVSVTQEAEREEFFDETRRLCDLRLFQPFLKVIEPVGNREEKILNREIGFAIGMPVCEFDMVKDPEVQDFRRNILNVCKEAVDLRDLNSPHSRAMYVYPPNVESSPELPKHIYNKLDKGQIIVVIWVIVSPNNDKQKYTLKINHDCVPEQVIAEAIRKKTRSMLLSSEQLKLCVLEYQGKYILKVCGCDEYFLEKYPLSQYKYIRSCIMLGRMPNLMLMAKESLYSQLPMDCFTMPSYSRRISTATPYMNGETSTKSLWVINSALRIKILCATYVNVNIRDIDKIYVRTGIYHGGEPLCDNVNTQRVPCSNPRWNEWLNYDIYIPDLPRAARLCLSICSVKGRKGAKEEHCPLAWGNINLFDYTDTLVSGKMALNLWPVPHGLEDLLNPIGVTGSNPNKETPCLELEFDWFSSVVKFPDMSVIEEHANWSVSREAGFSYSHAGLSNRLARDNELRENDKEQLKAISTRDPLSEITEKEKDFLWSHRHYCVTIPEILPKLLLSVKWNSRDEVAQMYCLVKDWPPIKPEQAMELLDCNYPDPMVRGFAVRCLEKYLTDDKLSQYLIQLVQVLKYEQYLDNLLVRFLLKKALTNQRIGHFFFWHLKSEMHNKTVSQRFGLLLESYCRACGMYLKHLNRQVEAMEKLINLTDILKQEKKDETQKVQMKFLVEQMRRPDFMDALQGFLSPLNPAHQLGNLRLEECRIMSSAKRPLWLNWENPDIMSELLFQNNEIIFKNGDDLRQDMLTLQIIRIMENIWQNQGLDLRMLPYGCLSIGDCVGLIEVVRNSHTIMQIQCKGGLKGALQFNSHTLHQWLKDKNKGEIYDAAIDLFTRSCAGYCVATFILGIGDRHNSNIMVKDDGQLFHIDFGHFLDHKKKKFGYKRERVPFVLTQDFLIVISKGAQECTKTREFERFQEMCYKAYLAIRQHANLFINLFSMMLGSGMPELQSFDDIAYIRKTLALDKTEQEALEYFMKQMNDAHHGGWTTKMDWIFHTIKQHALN
MARK2, sequence (Q7KZI7 whole entry): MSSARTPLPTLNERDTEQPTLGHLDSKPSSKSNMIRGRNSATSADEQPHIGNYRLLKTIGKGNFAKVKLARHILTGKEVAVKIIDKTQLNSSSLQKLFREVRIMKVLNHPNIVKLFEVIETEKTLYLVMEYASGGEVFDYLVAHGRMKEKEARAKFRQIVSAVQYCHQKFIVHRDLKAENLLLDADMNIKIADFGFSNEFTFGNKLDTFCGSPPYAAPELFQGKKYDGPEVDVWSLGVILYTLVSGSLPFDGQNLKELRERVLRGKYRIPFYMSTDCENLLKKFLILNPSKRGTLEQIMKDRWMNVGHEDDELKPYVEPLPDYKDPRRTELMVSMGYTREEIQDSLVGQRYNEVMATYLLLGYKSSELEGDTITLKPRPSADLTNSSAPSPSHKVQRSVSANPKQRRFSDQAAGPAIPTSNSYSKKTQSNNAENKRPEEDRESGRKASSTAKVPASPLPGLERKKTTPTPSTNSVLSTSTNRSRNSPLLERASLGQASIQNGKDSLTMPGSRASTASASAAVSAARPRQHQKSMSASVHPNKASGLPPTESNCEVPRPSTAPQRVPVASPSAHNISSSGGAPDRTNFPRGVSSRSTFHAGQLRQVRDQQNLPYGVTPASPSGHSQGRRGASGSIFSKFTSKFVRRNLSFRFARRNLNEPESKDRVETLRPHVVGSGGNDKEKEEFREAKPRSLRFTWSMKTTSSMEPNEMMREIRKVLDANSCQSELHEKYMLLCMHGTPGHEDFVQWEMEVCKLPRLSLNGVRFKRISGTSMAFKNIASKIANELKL

As to `CNc1ncc2cc(-c3ccc(-c4cccc(C)n4)cc3Cl)c(=O)n(C[C@H]3OC[C@H](N)CO3)c2n1` [compound 6, G-5555], the “Percent Control” value on STK4 is recorded as 90%; at PLK3 it was 86%; on DMPK, 100%; on MRCKB it was 73%; at TRKA it was 77%; on NEK11 it was 100%. In addition, the “Percent Control” value is listed as 100% at ERK8; 100% at ERK1; 100% at ABL1(F317L) (nonphosphorylated); 95% on ABL1(F317L) (phosphorylated); 100% on PIK3CB; 82% on PRKCH. Also, the “Percent Control” value is recorded as 85% on PIK3CA(Q546K); 84% at PLK4; 97% on EIF2AK1; 99% at ADCK4; 100% on PFTK1; 100% at EPHB2. Also, the “Percent Control” value on PRKD1 was 68%; on LIMK1 it was 93%; on NDR1, 97%; on MARK2 it was 100%.
